In the NIST ThermoML archive (doi:10.1016/j.jct.2012.03.015):
± gives the expanded uncertainty stated by the source.

Assay: activity coefficient (dimensionless); of the first substance listed, at infinite dilution; xn = mol fraction of the nth substance listed
Conditions: 101 kPa, Liquid, Chromatography, x1 = 0

| SMILES | activity coefficient (318.15 K) | activity coefficient (328.15 K) | activity coefficient (338.15 K) | activity coefficient (348.15 K) | activity coefficient (358.15 K) | activity coefficient (368.15 K) |
| --- | --- | --- | --- | --- | --- | --- |
| Cc1ccccc1C [1,2-dimethylbenzene] + COCC[N+]1(C)CCCC1.O=S(=O)([N-]S(=O)(=O)C(F)(F)F)C(F)(F)F | 1.94 ± 0.13 | 1.96 ± 0.13 | 1.97 ± 0.13 | 1.98 ± 0.13 | 1.99 ± 0.14 | 2 ± 0.14 |
| Cc1cccc(C)c1 [1,3-dimethylbenzene] + COCC[N+]1(C)CCCC1.O=S(=O)([N-]S(=O)(=O)C(F)(F)F)C(F)(F)F | 2.14 ± 0.15 | 2.16 ± 0.15 | 2.17 ± 0.15 | 2.19 ± 0.15 | 2.2 ± 0.15 | 2.22 ± 0.15 |
| Cc1ccc(C)cc1 [1,4-dimethylbenzene] + COCC[N+]1(C)CCCC1.O=S(=O)([N-]S(=O)(=O)C(F)(F)F)C(F)(F)F | 2.15 ± 0.15 | 2.17 ± 0.15 | 2.18 ± 0.15 | 2.2 ± 0.15 | 2.21 ± 0.15 | 2.23 ± 0.15 |
| C1COCCO1 [1,4-dioxane] + COCC[N+]1(C)CCCC1.O=S(=O)([N-]S(=O)(=O)C(F)(F)F)C(F)(F)F | 0.66 ± 0.05 | 0.68 ± 0.05 | 0.7 ± 0.05 | 0.72 ± 0.05 | 0.74 ± 0.05 | 0.76 ± 0.05 |
| C=CCCCCCCCC [1-decene] + COCC[N+]1(C)CCCC1.O=S(=O)([N-]S(=O)(=O)C(F)(F)F)C(F)(F)F | 41.7 ± 2.9 | 39 ± 2.7 | 36.4 ± 2.5 | 33.8 ± 2.3 | 31.7 ± 2.2 | 29.8 ± 2 |
| C=CCCCCC [1-heptene] + COCC[N+]1(C)CCCC1.O=S(=O)([N-]S(=O)(=O)C(F)(F)F)C(F)(F)F | 14.1 ± 1 | 13.4 ± 0.9 | 12.9 ± 0.9 | 12.3 ± 0.8 | 11.8 ± 0.8 | 11.4 ± 0.8 |
| C#CCCCCC [1-heptyne] + COCC[N+]1(C)CCCC1.O=S(=O)([N-]S(=O)(=O)C(F)(F)F)C(F)(F)F | 4.75 ± 0.32 | 4.71 ± 0.32 | 4.66 ± 0.32 | 4.62 ± 0.31 | 4.58 ± 0.31 | 4.55 ± 0.31 |
| C#CCCCC [1-hexyne] + COCC[N+]1(C)CCCC1.O=S(=O)([N-]S(=O)(=O)C(F)(F)F)C(F)(F)F | 3.29 ± 0.22 | 3.29 ± 0.22 | 3.28 ± 0.22 | 3.28 ± 0.22 | 3.28 ± 0.22 | 3.27 ± 0.22 |
| CCC[N+](=O)[O-] [1-nitropropane] + COCC[N+]1(C)CCCC1.O=S(=O)([N-]S(=O)(=O)C(F)(F)F)C(F)(F)F | 0.74 ± 0.05 | 0.742 ± 0.049 | 0.743 ± 0.049 | 0.744 ± 0.049 | 0.746 ± 0.049 | 0.747 ± 0.049 |
| C#CCCCCCC [1-octyne] + COCC[N+]1(C)CCCC1.O=S(=O)([N-]S(=O)(=O)C(F)(F)F)C(F)(F)F | 6.85 ± 0.47 | 6.73 ± 0.46 | 6.58 ± 0.45 | 6.48 ± 0.44 | 6.37 ± 0.43 | 6.27 ± 0.43 |
| C=CCCC [1-pentene] + COCC[N+]1(C)CCCC1.O=S(=O)([N-]S(=O)(=O)C(F)(F)F)C(F)(F)F | 6.65 ± 0.45 | 6.5 ± 0.44 | 6.35 ± 0.43 | 6.17 ± 0.42 | 6.07 ± 0.41 | 5.91 ± 0.4 |
| CC(C)CC(C)(C)C [2,2,4-trimethylpentane] + COCC[N+]1(C)CCCC1.O=S(=O)([N-]S(=O)(=O)C(F)(F)F)C(F)(F)F | 26.9 ± 1.8 | 25.1 ± 1.7 | 23.7 ± 1.6 | 22.3 ± 1.5 | 21.2 ± 1.4 | 20 ± 1.4 |
| CCC(C)(C)C [2,2-dimethylbutane] + COCC[N+]1(C)CCCC1.O=S(=O)([N-]S(=O)(=O)C(F)(F)F)C(F)(F)F | 15.1 ± 1 | 14.4 ± 1 | 13.7 ± 0.9 | 13.1 ± 0.9 | 12.6 ± 0.9 | 12 ± 0.8 |
| CCOC(C)(C)C [2-ethoxy-2-methylpropane] + COCC[N+]1(C)CCCC1.O=S(=O)([N-]S(=O)(=O)C(F)(F)F)C(F)(F)F | 6.31 ± 0.43 | 6.19 ± 0.42 | 6.12 ± 0.42 | 6.03 ± 0.41 | 5.94 ± 0.4 | 5.85 ± 0.4 |
| CCC(C)(C)OC [2-methoxy-2-methylbutane] + COCC[N+]1(C)CCCC1.O=S(=O)([N-]S(=O)(=O)C(F)(F)F)C(F)(F)F | 4.08 ± 0.28 | 4.06 ± 0.28 | 4.05 ± 0.28 | 4.03 ± 0.27 | 4.01 ± 0.27 | 4 ± 0.27 |
| COC(C)(C)C [2-methoxy-2-methylpropane] + COCC[N+]1(C)CCCC1.O=S(=O)([N-]S(=O)(=O)C(F)(F)F)C(F)(F)F | 2.76 ± 0.19 | 2.79 ± 0.19 | 2.81 ± 0.19 | 2.84 ± 0.19 | 2.86 ± 0.19 | 2.89 ± 0.2 |

| SMILES | activity coefficient (318.15 K) | activity coefficient (328.15 K) | activity coefficient (338.15 K) | activity coefficient (348.15 K) | activity coefficient (358.15 K) | activity coefficient (368.15 K) |
| --- | --- | --- | --- | --- | --- | --- |
| CC(C)CO [2-methyl-1-propanol] + COCC[N+]1(C)CCCC1.O=S(=O)([N-]S(=O)(=O)C(F)(F)F)C(F)(F)F | 2.76 ± 0.19 | 2.46 ± 0.17 | 2.2 ± 0.15 | 2.01 ± 0.14 | 1.84 ± 0.12 | 1.7 ± 0.11 |
| CC(C)(C)O [2-methylpropan-2-ol] + COCC[N+]1(C)CCCC1.O=S(=O)([N-]S(=O)(=O)C(F)(F)F)C(F)(F)F | 1.92 ± 0.13 | 1.79 ± 0.12 | 1.67 ± 0.11 | 1.56 ± 0.1 | 1.48 ± 0.1 | 1.4 ± 0.09 |
| CCC(C)CC [3-methylpentane] + COCC[N+]1(C)CCCC1.O=S(=O)([N-]S(=O)(=O)C(F)(F)F)C(F)(F)F | 16.6 ± 1.1 | 15.6 ± 1.1 | 14.8 ± 1 | 14.1 ± 1 | 13.5 ± 0.9 | 12.8 ± 0.9 |
| C=C(C)c1ccccc1 [(1-methylethenyl)benzene] + COCC[N+]1(C)CCCC1.O=S(=O)([N-]S(=O)(=O)C(F)(F)F)C(F)(F)F | 1.87 ± 0.13 | 1.93 ± 0.13 | 1.98 ± 0.13 | 2.03 ± 0.14 | 2.08 ± 0.14 | 2.12 ± 0.14 |
| CC(C)=O [acetone] + COCC[N+]1(C)CCCC1.O=S(=O)([N-]S(=O)(=O)C(F)(F)F)C(F)(F)F | 0.47 ± 0.04 | 0.48 ± 0.04 | 0.49 ± 0.04 | 0.5 ± 0.04 | 0.51 ± 0.04 | 0.52 ± 0.04 |
| CC#N [acetonitrile] + COCC[N+]1(C)CCCC1.O=S(=O)([N-]S(=O)(=O)C(F)(F)F)C(F)(F)F | 0.467 ± 0.036 | 0.469 ± 0.037 | 0.472 ± 0.037 | 0.474 ± 0.037 | 0.477 ± 0.037 | 0.479 ± 0.037 |
| c1ccccc1 [benzene] + COCC[N+]1(C)CCCC1.O=S(=O)([N-]S(=O)(=O)C(F)(F)F)C(F)(F)F | 1.03 ± 0.06 | 1.04 ± 0.07 | 1.06 ± 0.07 | 1.07 ± 0.07 | 1.08 ± 0.07 | 1.09 ± 0.07 |
| CCCCO [butan-1-ol] + COCC[N+]1(C)CCCC1.O=S(=O)([N-]S(=O)(=O)C(F)(F)F)C(F)(F)F | 2.87 ± 0.2 | 2.6 ± 0.2 | 2.35 ± 0.16 | 2.16 ± 0.15 | 1.98 ± 0.13 | 1.84 ± 0.12 |
| CCC(C)O (stereo unspecified) [butan-2-ol] + COCC[N+]1(C)CCCC1.O=S(=O)([N-]S(=O)(=O)C(F)(F)F)C(F)(F)F | 2.4 ± 0.2 | 2.19 ± 0.15 | 2 ± 0.14 | 1.85 ± 0.12 | 1.72 ± 0.12 | 1.61 ± 0.11 |
| CCCC=O [butanal] + COCC[N+]1(C)CCCC1.O=S(=O)([N-]S(=O)(=O)C(F)(F)F)C(F)(F)F | 0.808 ± 0.052 | 0.823 ± 0.053 | 0.838 ± 0.054 | 0.851 ± 0.055 | 0.864 ± 0.055 | 0.876 ± 0.056 |
| C1CCCCCC1 [cycloheptane] + COCC[N+]1(C)CCCC1.O=S(=O)([N-]S(=O)(=O)C(F)(F)F)C(F)(F)F | 15.3 ± 1 | 14.1 ± 1 | 13.1 ± 0.9 | 12.3 ± 0.8 | 11.5 ± 0.8 | 10.8 ± 0.7 |
| C1CCCCC1 [cyclohexane] + COCC[N+]1(C)CCCC1.O=S(=O)([N-]S(=O)(=O)C(F)(F)F)C(F)(F)F | 11.1 ± 0.8 | 10.4 ± 0.7 | 9.69 ± 0.66 | 9.22 ± 0.63 | 8.65 ± 0.59 | 8.23 ± 0.56 |
| C1=CCCCC1 [cyclohexene] + COCC[N+]1(C)CCCC1.O=S(=O)([N-]S(=O)(=O)C(F)(F)F)C(F)(F)F | 6.04 ± 0.41 | 5.82 ± 0.4 | 5.63 ± 0.38 | 5.44 ± 0.37 | 5.27 ± 0.36 | 5.1 ± 0.35 |
| C1CCCCCCC1 [cyclooctane] + COCC[N+]1(C)CCCC1.O=S(=O)([N-]S(=O)(=O)C(F)(F)F)C(F)(F)F | 20.7 ± 1.4 | 19 ± 1.3 | 17.4 ± 1.2 | 16.2 ± 1.1 | 15 ± 1 | 14 ± 1 |
| C1CCCC1 [cyclopentane] + COCC[N+]1(C)CCCC1.O=S(=O)([N-]S(=O)(=O)C(F)(F)F)C(F)(F)F | 7.52 ± 0.51 | 7.19 ± 0.49 | 6.85 ± 0.47 | 6.54 ± 0.45 | 6.26 ± 0.43 | 5.98 ± 0.41 |
